Experimental data as given in patent US20050261130A1, “Novel surfactants and formulations” (Monsanto Technology LLC, priority 2000, published 2005).

What was measured:
Assay type in all cases: physicochemical
[1] = Compatibility of surfactant with potassium glyphosate concentrate (no phase separation, 50° C., 1 week); details: 50° C. oven 1 week; for Compatible w/37% a.e. K + glyphosate at 12 wt % loading: 37 wt. % a.e. potassium glyphosate/12 wt. % surfactant; for Compatible w/45% a.e. K + glyphosate at 15% wt loading: 45 wt. % a.e. potassium glyphosate/15 wt. % surfactant
Procedure: For the 31 wt. % a.e. potassium glyphosate/10 wt. % surfactant compositions: 1.550 g of 40 wt. % a.e. aqueous glyphosate potassium salt solution was weighed into a vial. To the same vial, 0.200 g of surfactant was added. Enough deionized water was then added to the contents to bring the total weight to 2.000g. The mixture was stirred for 2 hours at room temperature and checked to see if a solution had been formed. If a solution was present, the test vial was allowed to stand at room temperature overnight. If a solution was still present, the test vial was placed in a 50° C. oven for 1 week. If no phase separation had occurred in one week, the surfactant being tested was considered “compatible.” All of the surfactants identified in Table 4 were compatible at the 31% a.e. potassium/10 wt. % surfactant loading.
For the 37 wt. % a.e. potassium glyphosate/12 wt. % surfactant compositions: 41.1 g of 45 wt. % a.e. aqueous glyphosate potassium salt was weighed to a container. To the same container was added 6.0 g of surfactant and 2.9 g deionized water for a total weight of 50.0 g. The remainder of the protocol is the same as that described for the 31 wt. % samples. The surfactants identified in Table 4 that were compatible at the 37% a.e. potassium/12 wt. % surfactant loading are indicated in Table 5 below.
For the 40 wt. % a.e. potassium glyphosate/10 wt. % surfactant compositions: 1.79 g of 45 wt. % a.e. aqueous glyphosate potassium salt was weighed into a vial. To the same vial was added 0.2 g of surfactant. The remainder of the protocol is the same as that described for the 31 wt. % samples. The surfactants identified in Table 4 that were compatible at the 40% a.e. potassium/10 wt. % surfactant loading are indicated in Table 5 below.
For the 45 wt. % a.e. potassium glyphosate/15 wt. % surfactant compositions: 1.100 g of solid mono potassium glyphosate was weighed into a vial. To the same vial was added 0.300 g surfactant. Enough deionized water was added to the vial to bring the final weight to 2.000 g. The remainder of the protocol is the same as that described for the 31 wt. % samples. The surfactants identified in Table 4 that were compatible at the 45% a.e. potassium/[…] are indicated in Table 5 below.

[2] = Specific gravity (Mettler DA-300 Density/Specific Gravity Meter); details: 20/15.6° C.; 30% a.e. by weight glyphosate monobasic salt solutions
Procedure: Specific gravities are measured using a Mettler DA-300 Density/Specific Gravity Meter.

[3] = Compatibility of surfactant with diammonium glyphosate concentrate (no phase separation, 50° C., 1 week); details: 50° C. oven 1 week; for Compatible w/31% a.e. diammonium glyphosate at 10 wt % loading: 31 wt. % a.e. diammonium glyphosate/10 wt. % surfactant; for Compatible w/37% a.e. diammonium glyphosate at 12 wt % loading: 37 wt. % a.e. diammonium glyphosate/12 wt. % surfactant
Procedure: For the 31 wt. % a.e. NH4^+glyphosate/10 wt. % surfactant compositions: • 1.48 g of 41.9 wt % a.e. aqueous glyphosate diammonium (1.7 eq) salt was weighed into a vial. To the same vial was added 0.2 g of surfactant and 0.32 g deionized water. The remainder of the protocol is the same as that described for the 31 wt % potassium glyphosate samples. The surfactants identified in Table 4 that were compatible at the 31% a.e. ammonium/10 wt. % surfactant loading are indicated in Table 5 below.
For the 37 wt. % a.e. NH4^+glyphosate/12 wt. % surfactant compositions: • 1.76 g of 41.9 wt % a.e. aqueous glyphosate diammonium (1.7 eq) salt was weighed into a vial. To the same vial was added […]. The remainder of the protocol is the same as that described for the 31 wt % potassium glyphosate samples. The surfactants identified in Table 4 that were compatible at the 37% a.e. ammonium/12 wt. % surfactant loading are indicated in Table 5 below.

[4] = Birefringence test for anisotropic aggregates on wax-coated slide; parameters: key: Y is yes; N is no; details: surfactant in IPA glyphosate formulation
Procedure: To determine whether a herbicidal formulation comprising glyphosate or a salt or ester thereof and a surfactant forms anisotropic aggregates on the foliage of a plant comprising the surfactant, the following birefringence testing procedure may be utilized.
First, a wax-coated slide is prepared. A preferred wax for preparing the slide is a blend of carnauba wax and beeswax in a weight/weight ratio of approximately 10:1, respectively. A clear wax mixture is prepared consisting of about 5% carnauba wax and about 0.5% beeswax in isopropanol, and is maintained at a temperature of approximately 82° C. The end of a glass 2.4 cm×7.2 cm microscope slide is immersed perpendicularly in the wax mixture to a depth of approximately one-third of the length of the slide. After about 10 to 15 seconds, the slide is very slowly and steadily withdrawn from the wax mixture and allowed to cool, leaving a wax layer deposited on both faces of the slide.
Visual examination of the slide can give a preliminary indication of the thickness and uniformity of the wax coating. If imperfections are evident the slide is rejected. […] Further evaluation of the acceptability of the wax-coated slide for the test is done by examining the slide under a microscope. The slide is selected for use in the test if, on microscopic examination using a 4.9× objective, the wax coating is uniformly thick and there is uniform density of wax particles across the slide.
The next stage in the procedure is to conduct the test.
The following instrumentation, or equivalent, items are required or useful for the test procedure: • Nikon SMZ-10A stereoscopic microscope equipped for polarized light observation, photomicrography, and video observation and recording. • 3CCD MTI camera. • Diagnostic Instruments 150 IL-PS power supply. • Sony Trinitron color video monitor, model PVM-1353MD. • Mitsubishi time-lapse video cassette recorder, model HS-S5600. • Hewlett Packard Pavillion 7270 computer, with Windows 95 and Image-Pro • Plus version 2.0 electronic imaging program installed. • Hewlett Packard Deskjet 870Cse printer.
For testing, a wax-coated slide, prepared and selected as described above, is positioned on the microscope stage, with the system set to provide transmitted light, both straight and polarized. A 1 microliter drop of the sample to be tested is applied to the wax surface using a thoroughly cleaned 1 microliter Hamilton syringe. This and subsequent operations are followed through the microscope at 4.9× objective. Duplicate or triplicate tests are done for each composition. Numerous tests can be conducted simultaneously on a single slide. Progression of change in the microscopic appearance of the sample is observed through the microscope and recorded at designated time intervals. Useful intervals are 1 minute, 10 minutes, 2 hours and greater than 24 hours after application of the drop to the wax surface. Observations can also be made at intermediate times to capture possible significant transitions occurring at such times.
The temperature of the wax layer tends to increase with prolonged exposure to the microscope light. […] However, in some cases temperature does affect the outcome of the test and in such cases it is preferred to illuminate the sample only for the short periods necessary to make observations, so that the temperature of the wax layer remains close to ambient temperature.
At dark field (polarized light) the wax layer is observed for birefringence, and at light field the character of the drop surface is observed, at each time interval. The following records are preferably made: • birefringence (y/n); • time of initial appearance of birefringence; • character of the birefringence; • appearance of drop surface as composition “dries”; • degree of spread of the drop; • effects of temperature (warming of the slide) if any; • other noticeable changes.

| Compound | Compatible w/37% a.e. K + glyphosate at 12 wt % loading [1] | Compatible w/31% a.e. diammonium glyphosate at 10 wt % loading [3] | Compatible w/37% a.e. diammonium glyphosate at 12 wt % loading [3] | AA (anisotropic aggregate) [4] | also measured |
| --- | --- | --- | --- | --- | --- |
| CN(CCCCCCCCCCCCN(C)CC(O)C(O)C(O)C(O)CO)CC(O)C(O)C(O)C(O)CO (centres unmarked) [Surfactant ZZ, 1,12 methylaminoglucitoldodecane] | Yes | – | – | – | Compatible w/45% a.e. K + glyphosate at 15% wt loading [1]: Yes |
| CCCCCCCCN(CCCN(CCCCCCCC)CC(O)C(O)C(O)C(O)CO)CC(O)C(O)C(O)C(O)CO (centres unmarked) [Surfactant CCC, 1,8 hexylaminoglucitol octane] | Yes | – | – | – | Compatible w/45% a.e. K + glyphosate at 15% wt loading [1]: Yes |
| CCN.O=C(O)CNCP(=O)(O)O | – | – | – | – | Specific Gravity [2]: 1.1599 |
| CCCCCCCCCCCCCCCCOCCOCCOCCOCCOCCOCCOCCOCCOCCOCCOCCOCCOCCOCCOCCOCCOCCOCCOCCOCCN(C)CC(O)C(O)C(O)C(O)CO (centres unmarked) [PPP] | No | No | No | – | – |
| CCCCCCCCCCCCCCCCCC(=O)O [stearic acid] | – | – | – | Y | – |
| CCCCCCCCCCCCCCCCN(C)CCN(C)CCCCCCCCCCCCCCCC | – | – | – | Y | – |
| CCCCCCCCCCN(C)C [drawing 146 w=10] | – | – | – | N | – |
| CCCCCCCCCCCCCCCC(=O)O [palmitic acid] | – | – | – | Y | – |
| CCCCCCCCCCCC[N+](C)(C)C [VVV] | – | Yes | No | – | – |
| CCCCCCCCCCCCCCCCCC[N+](C)(C)CC(O)C(O)C(O)C(O)CO (centres unmarked) [YY] | No | Yes | No | – | – |
| CCCCCCCCCCCCCCCCOCCOCCOCCOCCOCCOCCOCCOCCOCCOCCOCCOCCOCCOCCOCCOCCOCCOCCOCCOCCN(C)CC(O)CO (centres unmarked) [QQQ] | No | No | No | – | – |
| CCCCCCCC(=O)O [caprylic acid] | – | – | – | N | – |
| CCCCCCCCCCCCOCCOCCOCCOCCN(C)C [HHH] | – | No | – | – | – |
| CCCCCCCCCCCCN(C)CC(O)C(O)C(O)C(O)CO (centres unmarked) [RR] | Yes | Yes | Yes | – | Compatible w/45% a.e. K + glyphosate at 15% wt loading [1]: Yes |
| CCCCCCCC/C=C\CCCCCCCC(=O)O [oleic acid] | – | – | – | Y | – |
| laureth-3 phosphate | – | – | – | N | – |
| CCCCCCCCCCCCCCCCOCCOCCOCCOCCOCCOCCOCCOCCOCCOCCN(C)CC(O)C(O)C(O)C(O)CO (centres unmarked) [OOO] | Probably | No | Yes | – | – |
| CCCCCCCCCCN(C)CCCN(C)CCCCCCCCCC [Gemini 10-3-10] | – | – | – | Y | – |
| CCCCCCCCCCCCCCCCOCCOCCOCCOCCOCCOCCOCCOCCOCCOCCN(C)CCN(C)C [MMM] | Yes | Yes | – | – | – |
| CCCCCCCCCCCC[N+](C)(C)CC(O)C(O)C(O)C(O)CO (centres unmarked) [XX] | No | Yes | No | – | – |
| CCCCC(CC)COP(=O)(O)O (centres unmarked) [2-ethylhexyl phosphate] | – | – | – | N | – |
| CCCCCCCCNC(CO)(CO)CO [EEE] | Yes | Yes | Yes | – | Compatible w/45% a.e. K + glyphosate at 15% wt loading [1]: No |
| CCCCCCCCCCCCCCCCOCCOCCOCCOCCOCCOCCOCCOCCOCCOCCNCCCN [KKK] | Probably | – | – | – | Compatible w/45% a.e. K + glyphosate at 15% wt loading [1]: Yes, but minor |
| CCCCCCCCCCN(C)CCN(C)CCCCCCCCCC [Gemini 10-2-10] | – | – | – | Y | – |
| CCCCCCCCCCCCOS(=O)(=O)[O-].[Na+] [sodium lauryl sulfate] | – | – | – | Y | – |
| CCCCCCCCCCN(C)CCCCN(C)CCCCCCCCCC [Gemini 10-4-10] | – | – | – | Y | – |
| CCCCCCCCCCCCCCCCCCN(C)CCOCCOCCOCCOCCOCCOCCOC [Surfactant C, α-methyl-ω-(N-methyloctadecylamino)poly(oxy-1,2-ethanediyl)] | – | No | – | – | – |
| CCCCCCCCCCCCNC(CO)(CO)CO [FFF] | – | No | No | – | – |
